Experimental data as given in patent US7892350B2, “Sacrificial agents for fly ash concrete” (Boral Material Technologies Inc., priority 2003, dated 2011).

Assay: Second sacrificial agent testing protocol: paste air measurements with DDBS (0.0125 wt %) and rating; for Overall performance rating (second protocol rating): key: 0: Fail; 1: Poor; 2: Good; 3: Preferred; 4: Most preferred; for SA Rating (0-4): key: 0: Fail; 1: Poor; 2: Good; 3: Preferred; 4: Most preferred
Conditions: not given
Method: The second sacrificial agents evaluation protocol has been designed to assess the relative potential value of candidate sacrificial agents with a maximum of five paste air measurements.
The first two measurements (of entrained air) are carried out with a standard AEA in a portland cement paste and in a FA:cement paste; these two tests provide reference values which can be used for the relative assessment of a series of sacrificial agents. The other three paste air measurements pertain to the properties and effectiveness of the sacrificial agents.
1. Measurement of the air entrained by a standard air-entraining admixture in a cement paste of fixed composition and fluidity; the latter is a reference system which provides ‘reference’ air entrainment values (‘A’ in FIG. 8).
2. […] The difference between ‘B’ and ‘A’ in FIG. 8 is the reduction in air entrainment due to the presence of the fly ash; this is illustrated as ‘C’ in FIG. 8.
In the present SA testing and evaluation protocol, the fly ash selected should remain the same for the entire set of additives tested, in order to provide reliable relative performance ranking. For the present series of test, the Fly Ash selected was the one identified as B1 in Table 1 below; the physico-chemical properties of this fly ash are reported in Table 1.
In testing for the relative performance of the sacrificial agent, the sacrificial agent dosage was chosen in the range 0-0.1 wt %, which corresponds to typical dosage values observed in paste, mortar and concrete tests reported in Tables 2, 3 and 4 and Tables 7 to 34.
3. Measurement of the air entrainment of the SA, by itself, in a cement-only paste at a dosage of 0.1 wt %; this is illustrated as ‘D’ in FIG. 8.
4. Measurement of the air entrained by DDBS in the FA-cement paste comprising 0.05% wt SA, under the same conditions as described in 2 above. The air entrainment value observed in this system, compared to that observed in the absence of the SA, yields the air recovery due to the SA, and is illustrated schematically as ‘E’ in FIG. 8.
5. Same as in 4 above, but with a higher SA concentration at 0.1 wt %; the air entrainment observed, again compared to the value observed in the absence of the SA, yields a second value of air recovery by the SA and is illustrated as ‘F’ in FIG. 8.
For the relative performance rating of the group of products chosen as potential SA and listed in Table 36, the following rating scheme (Tables A and B) was adopted (referring to FIG. 8 and quantities defined therein):
1: Chemical name of compound tested as potential sacrificial agent • Col. 2: Level of air entrainment by the candidate sacrificial agent, at a concentration of 0.1 wt %, in a Portland cement paste ([…]) • Col. […] 5: Sacrificial agent overall rating index (described below) • Col. 6: Hydrophilic-Lipophilic Balance (HLB) values of candidate sacrificial agent (source and significance of HLB data given below) • Col. 7: Logarithm of the Oil(octanol)/water partition coefficient (Kow) of the candidate sacrificial agents (source and significance of data given below).

Compound | Overall performance rating (second protocol rating) | B1 + 0.0125% DDBS + 0.05% SA (air entrainment) | B1 + 0.0125% DDBS + 0.1% SA (air entrainment) | PCA + 0.1% SA (level of air entrainment by the candidate sacrificial agent) | SA Rating (0-4)
CCCCOCCO [Ethylene Glycol n-Butyl Ether] | 4 |  |  |  | 
OCCO [Ethylene Glycol] |  | 2.4 | 2.8 | 0.0 | 0
CCOCCOC(C)=O [Ethylene glycol mono-ethyl ether acetate] | 2 |  |  |  | 
CCCCCC(=O)O [Hexanoic acid] | 4 |  |  |  | 
CCCCCCO [Hexanol] | 1 |  |  |  | 
CCCCCCCCCCCCCCCC(=O)OC [Methylpalmitate] | 2 |  |  |  | 
CC(C)(C)CO [Neopentanol] | 3 |  |  |  | 
O=C(O)Cc1ccccc1 [Phenyl acetic acid] | 1 |  |  |  | 
OCCc1ccccc1 [Phenyl ethyl alcohol] | 3 |  |  |  | 
O=C([O-])c1ccccc1O.[Na+] [Sodium Salicylate] |  | 2.9 | 3.0 | 0.4 | 0

Same assay, conditions: B1 FA/cement paste; 0.0125 wt % DDBS; 0.05 wt % SA

Compound | B1 + 0.0125% DDBS + 0.05% SA (air entrainment)
CCCOCCO [Ethylene Glycol n-Propyl Ether] | 7.4
CCOC(=O)CC [Ethylpropionate] | 4.9
CC(=O)CC(C)C [Methyl isobutylketone (MIBK)] | 5.6
CCCCCCCCCCCC(=O)OC [Methyllaurate] | 4.6
CCCCCCCC(=O)OC [Methyloctanoate] | 4.8
CCCCCCCC/C=C\CCCCCCCC(=O)OC [Methyloleate] | 5.1
CCCCOC(=O)c1ccccc1C(=O)OCCCC [N-Butyl phthalate] | 2.2
CC(O)COc1ccccc1 (stereo not shown) [Propylene Glycol Phenyl Ether] | 7.2
CC1COC(=O)O1 (stereo not shown) [Propylene carbonate] | 2.5
O=P([O-])([O-])O.[Na+].[Na+] [Sodium phosphate dibasic] | 2.1

Same assay, conditions: B1 FA/cement paste; 0.0125 wt % DDBS; 0.10 wt % SA

Compound | B1 + 0.0125% DDBS + 0.1% SA (air entrainment)
CCCOCCO [Ethylene Glycol n-Propyl Ether] | 7.4
CCOC(=O)CC [Ethylpropionate] | 4.6
CC(=O)CC(C)C [Methyl isobutylketone (MIBK)] | 3.9
CCCCCCCCCCCC(=O)OC [Methyllaurate] | 2.8
CCCCCCCC(=O)OC [Methyloctanoate] | 2.2
CCCCCCCC/C=C\CCCCCCCC(=O)OC [Methyloleate] | 2.7
CCCCOC(=O)c1ccccc1C(=O)OCCCC [N-Butyl phthalate] | 2.1
CC(O)COc1ccccc1 (stereo not shown) [Propylene Glycol Phenyl Ether] | 6.7
CC1COC(=O)O1 (stereo not shown) [Propylene carbonate] | 2.9
O=P([O-])([O-])O.[Na+].[Na+] [Sodium phosphate dibasic] | 2.3

Same assay, conditions: B1 FA/cement paste; […]

Compound | B1 + 0.0125% DDBS + 0.05% SA (air entrainment) | B1 + 0.0125% DDBS + 0.1% SA (air entrainment)
CCCCOCCO [Ethylene Glycol n-Butyl Ether] | 8.8 | 9.5
O=C1OCCO1 [Ethylene carbonate] | 2.5 | 1.9
CCCCCC(=O)O [Hexanoic acid] | 5.1 | 4.9
CCCCCCO [Hexanol] | 4.2 | 2.7
O[C@H]1[C@H](O)[C@@H](O)[C@H](O)[C@@H](O)[C@H]1O [Inositol] | 2.1 | 2.1
CO [Methanol] | 1.9 | 2.2
CCCCCCCCCCCCCCCC(=O)OC [Methylpalmitate] | 5.3 | 3.4
CCC(=O)OC [Methylpropionate] | 2.7 | 3.5
CC(C)(C)CO [Neopentanol] | 4.9 | 4.7
CCCCCCCC/C=C\CCCCCCCC(=O)O [Oleic acid] | 2.2 | 1.9
O=C(O)Cc1ccccc1 [Phenyl acetic acid] | 2.8 | 4.2
OCCc1ccccc1 [Phenyl ethyl alcohol] | 4.5 | 5.5
CC(O)CO (stereo not shown) [Propylene Glycol] | 3.0 | 3.6

Same assay, conditions: Portland cement paste (PCA); 0.1 wt % SA, no DDBS

Compound | PCA + 0.1% SA (level of air entrainment by the candidate sacrificial agent)
CCCCOC(=O)c1ccccc1C(=O)OCCCC [N-Butyl phthalate] | 0.0

Same assay, conditions: Portland cement paste (PCA); […]

Compound | PCA + 0.1% SA (level of air entrainment by the candidate sacrificial agent)
CCCCOCCO [Ethylene Glycol n-Butyl Ether] | 2.0
CCCOCCO [Ethylene Glycol n-Propyl Ether] | 1.4
O=C1OCCO1 [Ethylene carbonate] | 0.0
CCOC(=O)CC [Ethylpropionate] | 0.9
CCCCCC(=O)O [Hexanoic acid] | 2.4
CCCCCCO [Hexanol] | 0.0
O[C@H]1[C@H](O)[C@@H](O)[C@H](O)[C@@H](O)[C@H]1O [Inositol] | 0.1
CO [Methanol] | 0.6
CC(=O)CC(C)C [Methyl isobutylketone (MIBK)] | 0.3
CCCCCCCCCCCC(=O)OC [Methyllaurate] | 1.0
CCCCCCCC(=O)OC [Methyloctanoate] | 0.0
CCCCCCCC/C=C\CCCCCCCC(=O)OC [Methyloleate] | 0.5
CCCCCCCCCCCCCCCC(=O)OC [Methylpalmitate] | 2.5
CCC(=O)OC [Methylpropionate] | 0.2
CC(C)(C)CO [Neopentanol] | 0.8
CCCCCCCC/C=C\CCCCCCCC(=O)O [Oleic acid] | 2.1
O=C(O)Cc1ccccc1 [Phenyl acetic acid] | 0.2
OCCc1ccccc1 [Phenyl ethyl alcohol] | 0.7
CC(O)COc1ccccc1 (stereo not shown) [Propylene Glycol Phenyl Ether] | 1.0
CC(O)CO (stereo not shown) [Propylene Glycol] | 0.5
CC1COC(=O)O1 (stereo not shown) [Propylene carbonate] | 0.4
O=P([O-])([O-])O.[Na+].[Na+] [Sodium phosphate dibasic] | 0.0

Same assay, conditions: sacrificial agent overall rating index

Compound | SA Rating (0-4)
CCCCOCCO [Ethylene Glycol n-Butyl Ether] | 4
CCCOCCO [Ethylene Glycol n-Propyl Ether] | 4
O=C1OCCO1 [Ethylene carbonate] | 0
CCOC(=O)CC [Ethylpropionate] | 3
CCCCCC(=O)O [Hexanoic acid] | 4
CCCCCCO [Hexanol] | 1
O[C@H]1[C@H](O)[C@@H](O)[C@H](O)[C@@H](O)[C@H]1O [Inositol] | 0
CO [Methanol] | 0
CC(=O)CC(C)C [Methyl isobutylketone (MIBK)] | 2
CCCCCCCCCCCC(=O)OC [Methyllaurate] | 1
CCCCCCCC(=O)OC [Methyloctanoate] | 2
CCCCCCCC/C=C\CCCCCCCC(=O)OC [Methyloleate] | 2
CCCCCCCCCCCCCCCC(=O)OC [Methylpalmitate] | 2
CCC(=O)OC [Methylpropionate] | 0
CCCCOC(=O)c1ccccc1C(=O)OCCCC [N-Butyl phthalate] | 0
CC(C)(C)CO [Neopentanol] | 3
CCCCCCCC/C=C\CCCCCCCC(=O)O [Oleic acid] | 0
O=C(O)Cc1ccccc1 [Phenyl acetic acid] | 1
OCCc1ccccc1 [Phenyl ethyl alcohol] | 3
CC(O)COc1ccccc1 (stereo not shown) [Propylene Glycol Phenyl Ether] | 4
CC(O)CO (stereo not shown) [Propylene Glycol] | 0
CC1COC(=O)O1 (stereo not shown) [Propylene carbonate] | 0
O=P([O-])([O-])O.[Na+].[Na+] [Sodium phosphate dibasic] | 0

Same assay, conditions: sum of ratings of air entrainment recovery by 0.05% and 0.1% SA; DDBS 0.0125 wt %, 50:50 B1 fly ash:cement paste

Compound | Overall performance rating (second protocol rating)
CCCOCCO [Ethylene Glycol n-Propyl Ether] | 4
CCOC(=O)CC [Ethylpropionate] | 3
CC(=O)CC(C)C [Methyl isobutylketone] | 2
CCCCCCCCCCCC(=O)OC [Methyllaurate] | 1
CCCCCCCC(=O)OC [Methyloctanoate] | 2
CCCCCCCC/C=C\CCCCCCCC(=O)OC [Methyloleate] | 2
CC(O)COc1ccccc1 (stereo not shown) [Propylene Glycol Phenyl Ether] | 4
